Test: not given

SMILES	logP
C=CC1(C)CCC(C(C)(C)O)O1 (configuration not stated)	2.43
C=CCc1ccc(OC)c(OC)c1	3.45
C/C=C/c1ccc(O)c(OC)c1	3.04
Cc1ccc(C(C)C)cc1O	3.49
C=C(C)[C@H]1CC[C@H](C)[C@@H](O)C1	3.21
CC12CCC(CC1)C(C)(C)O2	2.84
CC(C)[C@@H]1CC[C@@H](C)CC1=O	3.05
C=C(C)C1CCC2(C)OC2C1 (configuration not stated)	3.2
C=C(C)[C@@H]1CC=C(C=O)CC1	3.13
CC(C)=CCC[C@@H](C)CC=O	3.83
CC(C)=CCC/C(C)=C/CO	3.56
C=C(C)[C@@H]1CC=C(CO)CC1	3.17
CC(C)=C1CC[C@@H](C)CC1=O	3.08
CC(C)C12CCC(C)(CC1)O2	2.97
CC(=O)OC1C[C@H](C)CCC1C(C)C (some centres not stated)	4
CC(=O)OC/C=C(\C)CCC=C(C)C	4.04
C=CC(C)(CCC=C(C)C)OC(C)=O (configuration not stated)	3.93

Second part, the compound after the results:

logP	SMILES
3.16	CC1=C[C@H](O)[C@H]2C[C@@H]1C2(C)C
2.85	CC1=CC(=O)C(C(C)C)CC1 (configuration not stated)
2.42	CC1=CCC2[C@H](C1=O)C2(C)C (some centres not stated)
2.98	CC1(C)[C@@H]2CC=C(C=O)[C@H]1C2
3.84	CC(=O)C=CC1=C(C)CCCC1(C)C
2.23	CC1=CC(=O)[C@H]2CC1C2(C)C
2.74	CC12CCC(CC1=O)C2(C)C (configuration not stated)
3.22	CC1(C)[C@H]2CC=C(CO)[C@@H]1C2
4.44	CC1=CC2C(CC1)C2(C)C (configuration not stated)
3.01	CC1(C)C2CCC1(C)C(O)C2 (configuration not stated)
3.41	CC1(C)[C@H]2CC[C@@H](CO)[C@@H]1C2
4.38	CC1=CCC2C(C1)C2(C)C (configuration not stated)
4.25	CC1=CC=C(C(C)C)CC1
3.85	CC(=O)/C=C/[C@H]1C(C)=CCCC1(C)C
2.05	CC1(C)C2CCC(CN)C1C2 (configuration not stated)
4.24	CC1=CCC(=C(C)C)CC1
3.17	CC12CC[C@@H](C1)C(C)(C)C2=O (stereo in doubt)

Test: method code SF-GLC, from DOI: 10.1016/s0021-9673(99)01009-2, PMID: 10669289

SMILES	logP
CC(=O)OC(C)(C)C1C=CC(C)CC1 (configuration not stated)	3.96
CC1=CCC(C(C)(C)O)CC1O (configuration not stated)	1.11
C=C(C)C1CCC(C)C(=O)C1 (configuration not stated)	2.85
C=C(C)C1CC=C(C)C(O)C1 (configuration not stated)	2.85
C=C(C)[C@H]1CC=C(C)C(=O)C1	2.71

Other lines, results leading:

logP	SMILES
2.8	CC1=CCC(O)(C(C)C)CC1 (configuration not stated)
4.44	CC1=CCC2C[C@H]1C2(C)C
3.28	CC1=CCC(C(C)(C)O)CC1 (configuration not stated)
